Read-outs that look alike come from different tables or passages of the source.
Experiments:
melanoma cell line A375 = test: In vitro dose response study, A375 proliferation; assay type: cell-based, human; conditions: A375, 96h; for IC50: Homo sapiens, A-375, graded concentration, cell concentration
Experimental: The melanoma cell line A375 was treated during 96h with graded concentration of compounds 5, 38, 42 and 43. At the end of the culture period, the cell concentration was determined.

[1] = test system: plck-GAPDH tumor (AITL-like lymphoma) engrafted in NSG mice; test: Treatment of plck-GAPDH AITL lymphoma engrafted NSG mice; assay type: in vivo, mouse
Experimental: Tumor Transplantation into NOD/SCIDγc−/− (NSG) Mice
Single cell suspensions from spleen or lymph nodes of old (>18 months) plck-GAPDH mice with splenomegaly were injected intravenously (i.v.) into 6-8 week old NSG mice (1-2E7 splenocytes per mouse). Recipient mice were sacrificed for evaluation when the mice became weak and/or splenomegaly could be detected (30 to 60 days after injection). The different hematopoietic organs (liver, spleen, blood) were isolated and single cell suspension prepared for FACS analysis (see below).
Treatment with NIK Inhibitor
Plck-GAPDH tumors were injected into 10 NSG mice (see above) and 5 were treated with a newly developed chemical NIK inhibitor (compound 5 according to the invention) or with Vehicle. IP injections were performed every other day with compound 5 (250 μg in 100 μl DMSO/Tween-20/Labrafil) or vehicle (100 μl DMSO/Tween-20/Labrafil). The second NIK inhibitor used (compound 38 according to the invention) was more soluble and IP injections were performed every other day with compound 38 (250 μg in 100 μl NaCl 0,9%/mouse) or vehicle (100 μl NaCl 0,9%/mouse).
Two different plck-GAPDH tumors expressing high levels of PD-1 on the CD4^+ T cells were injected into 10 NSG mice and the mice were treated with anti-PD1 antibody (clone PMP1-14, BioXcell; 125 μg in PBS/mouse) or an isotope control antibody daily for the first 2 days post-tumor injection, then every other day.
Combined anti-PD1 and NIK Inhibitor Treatment
The mice were injected with antibody (anti-PD1 or isotype control) in the morning and compound 38 according to the invention (injected in the evening) daily for the first 2 days plck-GAPDH post-tumor injection, then every other day. Same concentration as for single treatments was used.
Recipient mice were sacrificed at endpoint (>10% weight loss or palpable splenomegaly). Single cell suspensions were prepared from the spleen, BM and liver for immunophenotypic FACS analysis.

NIK = NIK (Homo sapiens, UniProt Q99558); conditions: patent PCT/EP2017/067306; cited from earlier work
[2] = test system: human Diffuse large B-cell lymphoma (DLBCL) B cell lines (U2932, KARPAS 422, SUDHL6, OCYL3); test: B cell lymphoma proliferation assay; assay type: cell-based; conditions: 10 μM, 96 h
Experimental: B Cell Lymphoma Proliferation Assay
The tested cancer cells are the following: the human Diffuse large B-cell lymphoma (DLBCL) cell lines: Karpas-422, SUDHL-6, U2932 and Oxyl3.
Cells were counted using a flow cytometer (MACQUANT, Miltenyi). 2E5 cells were seeded in 2 ml RPMI-GlutamaX supplemented with 10% FCS at start of the proliferation assay in a 6-well plate supplemented with the NIK Inhibitor (compound 38) at 10 μM for 96 h. The cell numbers at 96h were then determined by counting using a flow cytometer. We distinguished dead and living cells using DAPI staining.
Proliferation was calculated as followed:
Proliferation (%)=(Treated cell number/untreated cells)*100.
The average and standard deviation were determined from 3 independent experiments.

Solubility = assay type: physicochemical
[3] = test system: colon adenocarcinoma (HT29); test: Cancer cell proliferation assay (trypan blue exclusion), HT29; assay type: cell-based, human; conditions: 10 μM; proliferation normalized to DMSO-treated control
Experimental: (§1) Cancer cell proliferation assay (A375, A549, PC3, HT-29, MiaPaca-2 and MCF-7)
(§2) The tested cancer cells are the following: human melanoma cells (A375), lung carcinoma cells (A549), prostate cancer cells (PC3), colon adenocarcinoma (HT29), pancreas carcinoma (MiaPaca 2) and breast carcinoma (MCF-7).
(§3) Cells were counted using a Malassez chamber. The average and standard deviation were calculated from triplicate experiments. Antiproliferative effects were evaluated by trypan blue exclusion assay. Briefly, cells were seeded into 12-well plate and grown in media supplemented with indicated compound at 1 or 10μM for 48h or 96h. Cells were washed with PBS and detached by trypsinization, collected and colored by trypan blue.
(§4) Dead and living cells were counted and proliferation was calculated as follow: Proliferation (%)=[(treated cell number/untreated cells number)*100].
(§5) As a comparison, cell viability was also determined and calculated as follow: Viability (%)=100−[(dead cell number/total cells)*100].

[4] = test system: EZH2 mRNA in A375 cancer cells; test: Quantitative RT-PCR analysis of EZH2 gene expression; assay type: cell-based, human; conditions: 10 μM, 96 h
Experimental: (§6) Quantitative RT-PCR Analysis of EZH2 and p21 Gene Expression
(§7) Total RNA was isolated from cells using the RNAeasy minikit (Qiagen) according to the manufacturer's procedure. Reverse transcription was performed using the AMV reverse transcription system (Promega), and quantitative PCR was performed with Power Sybr green (Applied Biosystems, Life Technologies, Grand Island, N.Y.) following the manufacturer's instructions. The PCR was carried out on a Step One plus Real-Time PCR system (Applied Biosystems). All analyses were done in triplicate, and a melting curve analysis was performed to control for product quality and specificity. Expression levels were calculated using the comparative method of relative quantification, with SB34 as a normalizer. The data were analyzed for statistical significance using Student's t-test. The results are presented as the mean±SEM relative to the control.
(§8) PCR primers for EZH2 (accession number NM004456.4) and p21(CDKN1A) (accession number NM078467.2) were obtained from primer bank or primer depot (http://pga.mgh.harvard.edu/primerbank/, https://primerdepot.nci.nih.gov), and their specificity was verified using primer blast (http://www.ncbi.nlm.nih.gov/tools/primer-blast/).

[5] = test system: senescence-associated β-galactosidase (SA-β-Gal); test: Quantitative senescence-associated beta-galactosidase assay; assay type: cell-based; conditions: SA-β-Gal 4-MUG cleavage; relative to DMSO-treated control
Text: Quantitative Senescence-Associated Beta-Galactosidase Assay
The production of the fluorophore was monitored at an […] wavelength of 365/460 nm, as reported (Gary and Kindell, 2005)

[6] = test system: pancreas carcinoma (MiaPaca 2); test: Cancer cell proliferation assay (trypan blue exclusion), MiaPaca-2; assay type: cell-based, human; conditions: 10 μM; proliferation normalized to DMSO-treated control
Experimental: as §1, §2, §3, §4, §5

[7] = test system: human melanoma cells (A375); test: Cancer cell proliferation assay (trypan blue exclusion), A375; assay type: cell-based; conditions: 10 μM; proliferation normalized to DMSO-treated control
Experimental: as §1, §2, §3, §4, §5

[8] = test system: lung carcinoma cells (A549); test: Cancer cell proliferation assay (trypan blue exclusion), A549; assay type: cell-based, human; conditions: 10 μM; proliferation normalized to DMSO-treated control
Experimental: as §1, §2, §3, §4, §5

[9] = test system: prostate cancer cells (PC3); test: Cancer cell proliferation assay (trypan blue exclusion), PC3; assay type: cell-based, human; conditions: 10 μM; proliferation normalized to DMSO-treated control
Experimental: as §1, §2, §3, §4, §5

human melanocytes (MHN) = test: Melanocyte viability assay (MHN); assay type: cell-based; conditions: 10 μM, 96 h; viability normalized to DMSO-treated control
Experimental: Melanocyte Viability Assay (MHN)
Cell viability effects were evaluated by trypan blue exclusion assay. Briefly, cells were seeded into 12-well plate and grown in media supplemented with indicated compound at 10 μM for 96 h. Cells were washed with PBS and detached by trypsinization, collected and colored by trypan blue. Dead and living cells were counted and cell viability was calculated as follow: Viability (%)=100−[(dead cell number/total cells)*100].

[10] = test system: p21 (CDKN1A) mRNA in A375 cancer cells; test: Quantitative RT-PCR analysis of p21 gene expression; assay type: cell-based, human; conditions: 10 μM, 96 h
Experimental: as §6, §7, §8

breast carcinoma (MCF-7) = test: Cancer cell proliferation assay (trypan blue exclusion), MCF-7; assay type: cell-based, human; conditions: 10 μM; proliferation normalized to DMSO-treated control
Experimental: as §1, §2, §3, §4, §5

[11] = test system: IFN-γ in supernatant of A375 cancer cells; test: ELISA measurement of IFN-γ in supernatant; assay type: cell-based, human; conditions: 10 μM, 96 h
Experimental: Supernatant from cells treated for 96 h was tested for human or mouse IFN-γ content via ELISA (peprotech, cat 900-k27 and 900-k98) kit following the manufacturer's instructions.

[12] = Microsomal stability (mouse liver microsomes); assay type: in vitro ADME; conditions: mouse liver microsomes 0.5 mg/mL, NADPH 1 mM, 37° C.
Experimental: Microsomal Stability (Mouse Liver Microsomes)
Microsomal stability was evaluated with mouse liver microsomes (0.5 mg/mL) and NADPH cofactor (1 mM) at 37° C. The percentage of remaining compound is determined at 5 min by LC-MS by measuring the area under the peak of compound on the chromatogram.

[13] = plck-GAPDH tumor engrafted NSG mice

NIK, sequence (Q99558 whole entry): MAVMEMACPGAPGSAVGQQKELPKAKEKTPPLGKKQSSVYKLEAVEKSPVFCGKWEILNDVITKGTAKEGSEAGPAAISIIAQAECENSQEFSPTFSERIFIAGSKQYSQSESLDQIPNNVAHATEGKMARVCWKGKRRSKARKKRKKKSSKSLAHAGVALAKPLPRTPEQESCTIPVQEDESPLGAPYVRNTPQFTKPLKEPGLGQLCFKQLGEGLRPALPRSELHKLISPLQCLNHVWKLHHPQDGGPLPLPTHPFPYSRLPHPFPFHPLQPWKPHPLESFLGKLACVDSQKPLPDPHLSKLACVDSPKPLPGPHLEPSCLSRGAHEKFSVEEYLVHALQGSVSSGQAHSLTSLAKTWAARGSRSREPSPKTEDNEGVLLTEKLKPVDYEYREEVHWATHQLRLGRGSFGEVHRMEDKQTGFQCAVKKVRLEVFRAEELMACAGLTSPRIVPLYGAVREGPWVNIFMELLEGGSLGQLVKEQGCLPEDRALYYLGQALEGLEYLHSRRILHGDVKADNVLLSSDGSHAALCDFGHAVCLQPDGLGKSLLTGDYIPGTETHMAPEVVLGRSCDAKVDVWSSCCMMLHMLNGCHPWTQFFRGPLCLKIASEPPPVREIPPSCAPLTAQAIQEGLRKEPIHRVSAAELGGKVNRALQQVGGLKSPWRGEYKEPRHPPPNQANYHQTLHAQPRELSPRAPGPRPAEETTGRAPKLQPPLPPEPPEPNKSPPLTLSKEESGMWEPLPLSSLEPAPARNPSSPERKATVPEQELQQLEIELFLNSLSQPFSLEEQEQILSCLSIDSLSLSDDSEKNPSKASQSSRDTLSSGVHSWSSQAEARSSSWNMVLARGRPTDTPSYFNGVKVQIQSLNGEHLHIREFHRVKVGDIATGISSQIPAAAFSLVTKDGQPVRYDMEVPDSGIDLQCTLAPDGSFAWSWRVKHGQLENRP

Compound | concentration at which inhibition of A375 proliferation starts (melanoma cell line A375) | IC50 (melanoma cell line A375) [nM] | anti-NIK activity (NIK) | Cancer Cell Proliferation HT29 [3] [%] | qPCR EZH2 A375 mRNA [4] | % Senescence, conversion rate [5] [%] | Cancer Cell Proliferation MiaPaca-2 [6] [%] | Cancer Cell Proliferation A375 [7] [%] | Cancer Cell Proliferation A549 [8] [%] | Cancer Cell Proliferation PC3 [9] [%] | qPCR p21 A375 mRNA [10] | Cancer Cell Proliferation MCF-7 (breast carcinoma (MCF-7)) [%] | ELISA IFN-γ (A375), IFN-γ concentration [11] | further results
COc1ccc(Nc2ccnc3cc(Cl)ccc23)cc1 [Compound 5, N-(4-methoxyphenyl)-7-chloroquinolin-4-amine] | around 5 mM | 1330 | confirmed its activity in vitro |  |  |  |  |  |  |  |  |  |  | GC B cells in the spleen at sacrifice [1, 13]: completely devoid of GC B cells; survival of tumor engrafted NSG mice as compared to the control group ([1]; plck-GAPDH tumor engrafted NSG mice, IP treatment day 1 and 2, then every other day): significant increased survival
COc1ccc(Nc2ccnc3cc(Cl)ccc23)cc1OC [Compound 38, N-(3,4-dimethoxyphenyl)-7-chloroquinolin-4-amine] | around 5 mM | 560 | potent |  |  |  |  |  |  |  |  |  |  | survival of the plck-GAPDH tumor engrafted mice ([1]; NSG mice, compound 38 250 μg IP, anti-PD1 125 μg, every other day): up to 60%; B cells in the spleen at sacrifice [1, 13]: highly significant decrease; CD4+ T cells in the spleen [1, 13]: strong reduction; Tfh PD1high CD4+ population in the spleen [1, 13]: residual subpopulation; spleen size at sacrifice compared to controls [1, 13]: significant decrease in spleen size; CD8 cytotoxicity (IFNγ, granzyme B, perforin by cytotoxic CD8+ cells) ([1]; splenocytes at sacrifice, PMA/ionomycin 5 h): increasing CD8 IFNγ release; proliferation of B cell lymphoma cancer cell lines compared with controls (DMSO) [2]: strong inhibitory effect; cell viability of B cell lymphoma cell lines ([2]; data not shown): without affecting the cell viability; solubility (Solubility): more soluble; solubility (Solubility; listed as COMPONENT 38): high solubility
COCCOc1ccc(Nc2ccnc3cc(Cl)ccc23)cc1 [Compound 42, 7-chloro-N-(4-(2-methoxyethoxy)phenyl)quinolin-4-amine] | around 5 mM |  |  | 3.5 | 0.23 fold relative to DMSO-treated control | 645.9 | 7.8 | 6.9 | 19.5 | 14.1 | 6.79 fold relative to DMSO-treated control | 11.9 | 1.73 (ng/mL)/millions cells | Heathly Cell Viability MHN (human melanocytes (MHN)): 99.0%
COc1ccc(Nc2ccnc3cc(Cl)ccc23)cc1O [Compound 43, 7-chloro-N-(3-(hydroxy)-4-(methoxy)phenyl)quinolin-4-amine] | around 5 mM |  |  | 15.6 | 0.62 fold relative to DMSO-treated control | 1875.1 | 32.4 | 30.5 | 51.1 | 55.0 | 3.08 fold relative to DMSO-treated control | 29.5 | 0.41 (ng/mL)/millions cells | Microsomal stability, mouse liver (5 min), percentage of the remaining compound [12]: 41% ± 3; Microsomal stability, mouse liver (5 min), percentage of the remaining compound ([12]; listed as compound 43): 41%

From US20200360365A1, “SUBSTITUTED HALO-QUINOLINE DERIVATES FOR USE IN THE TREATMENT OF LYMPHOMAS AND LEUKEMIA” (Instutut National de la Sante et de la Researche Medicale, priority 2018, published 2020)
